Laboratory results taken from ChEMBL document CHEMBL2074164, “Characterization of the transport of the bicyclic peptide phalloidin by human hepatic transport proteins” (Naunyn Schmiedebergs Arch Pharmacol, 2003).
*1 amine or outer side, *2 acyl side, *3 side chain or, on linkers, in order; H or OH if unused. Where a SMILES comes first, the peptide text is derived from it. Bridges are numbered along the chain shown (N, C = ends). [ ]: non-standard residue; d: D form. Trp(2-yl) = O=C([C@H](Cc1c([*:3])[nH]c2ccccc12)N[*:1])[*:2]; Leu(4R-OH,5-OH) = C[C@](O)(CO)C[C@H](N)C(=O)O; cisHyp = O=C(O)[C@@H]1C[C@H](O)CN1

T1: Solute carrier organic anion transporter family member 1B1 (Homo sapiens, UniProt Q9Y6L6)
T1 sequence (Q9Y6L6 whole entry): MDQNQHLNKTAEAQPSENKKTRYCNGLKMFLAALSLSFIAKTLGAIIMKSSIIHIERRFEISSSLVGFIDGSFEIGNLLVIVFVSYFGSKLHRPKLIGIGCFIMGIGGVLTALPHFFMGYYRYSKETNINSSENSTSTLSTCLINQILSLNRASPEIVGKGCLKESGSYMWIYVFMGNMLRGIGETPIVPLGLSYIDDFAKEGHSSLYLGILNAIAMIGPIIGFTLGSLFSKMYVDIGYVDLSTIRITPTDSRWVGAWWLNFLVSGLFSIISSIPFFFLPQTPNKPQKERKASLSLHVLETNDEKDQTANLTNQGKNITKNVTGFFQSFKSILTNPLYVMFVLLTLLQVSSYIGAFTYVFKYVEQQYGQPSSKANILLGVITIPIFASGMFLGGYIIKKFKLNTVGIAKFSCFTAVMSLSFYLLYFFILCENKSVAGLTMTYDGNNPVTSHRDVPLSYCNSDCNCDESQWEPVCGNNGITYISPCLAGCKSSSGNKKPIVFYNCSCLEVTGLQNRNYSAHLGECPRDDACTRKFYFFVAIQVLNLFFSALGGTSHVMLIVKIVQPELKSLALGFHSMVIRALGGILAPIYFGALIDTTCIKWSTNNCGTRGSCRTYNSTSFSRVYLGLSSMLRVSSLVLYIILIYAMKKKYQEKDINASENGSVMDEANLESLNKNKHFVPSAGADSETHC


Legend:
Format in all cases: functional, cell-based
[1] = biological target: T1, Solute carrier organic anion transporter family member 1B1; experiment: TP_TRANSPORTER: inhibition of Phalloidin uptake (Phalloidin: 1 uM) in OATP-C-expressing HEK293 cells
[2] = biological target: Canalicular multispecific organic anion transporter 1/Solute carrier organic anion transporter family member 1B1 (Homo sapiens, UniProt Q92887+Q9Y6L6); experiment: TP_TRANSPORTER: transepithelial transport (basal to apical) of Phalloidin at a concentration of 1 uM in MRP2- and OATP-C-expressing MDCKII cells; details: dog, mdck-ii
[3] = biological target: T1, Solute carrier organic anion transporter family member 1B1; experiment: TP_TRANSPORTER: inhibition of Phalloidin uptake (Phalloidin: 1 uM) by alpha-Amanitin at a concentration of 20 u M in OATP-C-expressing HEK293 cells; details: hek293, 20 µM
[4] = substrate: C[C@@H]1NC(=O)[C@H](C[C@@](C)(O)CO)NC(=O)[C@@H]2Cc3c([nH]c4ccccc34)SC[C@H](NC(=O)[C@@H]([C@H](C)O)NC1=O)C(=O)N1C[C@@H](O)C[C@H]1C(=O)N[C@@H](C)C(=O)N2; experiment: TP_TRANSPORTER: uptake in OATP-C-expressing HEK293 cells

| Molecule | IC50 [1] [µM] | further results |
| --- | --- | --- |
| CC(C)[C@@H]1NC(=O)[C@@H](Cc2ccccc2)NC(=O)[C@H](Cc2ccccc2)NC(=O)[C@@H]2CCCN2C(=O)[C@@H]2CCCN2C(=O)[C@H](Cc2ccccc2)NC(=O)[C@@H](Cc2ccccc2)NC(=O)[C@H](C)NC(=O)[C@@H]2CCCN2C(=O)[C@@H]2CCCN2C1=O [ANTAMANIDE] | 1 |  |
| C[C@@H]1NC(=O)[C@H](C[C@@](C)(O)CO)NC(=O)[C@@H]2Cc3c([nH]c4ccccc34)SC[C@H](NC(=O)[C@@H]([C@H](C)O)NC1=O)C(=O)N1C[C@@H](O)C[C@H]1C(=O)N[C@@H](C)C(=O)N2 [PHALLOIDIN] (cyclo(A[dT]C[cisHyp]A[Trp(2-yl)][Leu(4R-OH,5-OH)]); thioether 3-6) |  | Activity [2]: substrate [+] |
| CO[C@H]1C[C@@H]2CC[C@@H](C)[C@@](O)(O2)C(=O)C(=O)N2CCCC[C@H]2C(=O)O[C@H]([C@H](C)C[C@@H]2CC[C@@H](O)[C@H](OC)C2)CC(=O)[C@H](C)/C=C(\C)[C@@H](O)[C@@H](OC)C(=O)[C@H](C)C[C@H](C)/C=C/C=C/C=C/1C [SIROLIMUS] | 1.1 |  |
| O=C1OC(c2ccc(O)c(S(=O)(=O)O)c2)(c2ccc(O)c(S(=O)(=O)O)c2)c2c(Br)c(Br)c(Br)c(Br)c21 [SULFOBROMOPHTHALEIN SODIUM] | 0.05 |  |
| C=CC[C@@H]1/C=C(\C)C[C@H](C)C[C@H](OC)[C@H]2O[C@@](O)(C(=O)C(=O)N3CCCC[C@H]3C(=O)O[C@H](/C(C)=C/[C@@H]3CC[C@@H](O)[C@H](OC)C3)[C@H](C)[C@@H](O)CC1=O)[C@H](C)C[C@@H]2OC [TACROLIMUS ANHYDROUS] | 3.7 |  |
| CC[C@H](C)[C@@H]1NC(=O)CNC(=O)[C@@H]2Cc3c([nH]c4cc(O)ccc34)[S+]([O-])C[C@@H](NC(=O)CNC1=O)C(=O)N[C@@H](CC(N)=O)C(=O)N1C[C@H](O)C[C@H]1C(=O)N[C@@H]([C@@H](C)[C@@H](O)CO)C(=O)N2 (stereo partly drawn) [alpha-Amanitin] |  | Activity [3]: is not an inhibitor [-] |
| Solute carrier organic anion transporter family member 1B1 (Homo sapiens) (protein) MDQNQHLNKTAEAQPSENKKTRYCNGLKMFLAALSLSFIAKTLGAIIMKSSIIHIERRFEISSSLVGFIDGSFEIGNLLVIVFVSYFGSKLHRPKLIGIGCFIMGIGGVLTALPHFFMGYYRYSKETNINSSENSTSTLSTCLINQILSLNRASPEIVGKGCLKESGSYMWIYVFMGNMLRGIGETPIVPLGLSYIDDFAKEGHSSLYLGILNAIAMIGPIIGFTLGSLFSKMYVDIGYVDLSTIRITPTDSRWVGAWWLNFLVSGLFSIISSIPFFFLPQTPNKPQKERKASLSLHVLETNDEKDQTANLTNQGKNITKNVTGFFQSFKSILTNPLYVMFVLLTLLQVSSYIGAFTYVFKYVEQQYGQPSSKANILLGVITIPIFASGMFLGGYIIKKFKLNTVGIAKFSCFTAVMSLSFYLLYFFILCENKSVAGLTMTYDGNNPVTSHRDVPLSYCNSDCNCDESQWEPVCGNNGITYISPCLAGCKSSSGNKKPIVFYNCSCLEVTGLQNRNYSAHLGECPRDDACTRKFYFFVAIQVLNLFFSALGGTSHVMLIVKIVQPELKSLALGFHSMVIRALGGILAPIYFGALIDTTCIKWSTNNCGTRGSCRTYNSTSFSRVYLGLSSMLRVSSLVLYIILIYAMKKKYQEKDINASENGSVMDEANLESLNKNKHFVPSAGADSETHC |  | Km [4]: 39 µM |
